Reference: patent US20210347709A1, “RADIOFLUORINATED GPC3-BINDING PEPTIDES FOR PET IMAGING OF HEPATOCELLULAR CARCINOMA” (University of Southern California, priority 2020, published 2021)
Where two headings read alike, the source gives them in different places.

How the values were obtained:
[1] = In vivo metabolic stability in HepG2 tumor-bearing mice; conditions: 1 h after intravenous injection
Procedure: In Vivo Metabolic Stability. HepG2 tumor-bearing mice (n=3/group) were intravenously injected with 5.55 MBq of Al[^18F]F-GP2076 or Al[^18F]F-GP2633. At 1 h after the injection, the mice were euthanized, and the HepG2 tumor, blood, liver, kidneys, and urine samples were collected. Briefly, the blood sample was immediately centrifuged for 5 min at 12,000 rpm. The HepG2 tumor, liver, and kidneys were homogenized and then centrifuged for 5 min at 12,000 rpm. The supernatant from each sample was passed through an ultrafiltration tube (Millipore, USA) and then centrifuged for 10 min at 12,000 rpm. The urine sample was diluted with 100 μl of PBS. The filtrate from each sample was injected into analytic HPLC. The HPLC eluents were collected with a fraction collector (one fraction/30 sec), and the radioactivity of each fraction was measured by gamma counting.

[2] = tested on: GPC3-positive HepG2 tumor; test: MicroPET/CT imaging and biodistribution, HepG2 tumor model; type: in vivo, nude mice; conditions: for Kidneys uptake / Liver uptake / Tumor uptake: HepG2 (GPC3+) tumor model; for Tumor uptake: decay-corrected
Procedure: (§1) MicroPET/CT Imaging and Biodistribution. MicroPET/CT scans were carried out using a Siemens Inveon PET/CT scanner (Siemens, Germany). Tumor-bearing mice (n=3/group) were intravenously injected with 5.55 MBq of Al[^18F]F-GP2076 or Al[^18F]F-GP2633 under isoflurane anesthesia. A ten-minute static PET scan for each animal was acquired at 30, 60, and 120 min after the injection. 3-Dimensional ordered subset expectation maximization (3D-OSEM) algorithm was used for the PET reconstruction, and CT was applied for attenuation correction. Detailed procedures for the microPET/CT imaging and biodistribution are provided in ESM.
(§2) All animal experiments were conducted according to the guideline of the Nanfang Hospital Animal Ethics Committee at the Southern Medical University. Male or female BALB/c nude mice (about 4-6 weeks old) were obtained from the Laboratory Animal Center at Southern Medical University. The HepG2 and McA-RH7777 HCC xenografts were established by subcutaneous injection of 1×10^6 tumor cells into the left shoulder of nude mice. The animals were used for in vivo studies when the tumors reached a size of 0.5-1 cm in diameter (4-6 weeks after inoculation).
(§3) Inveon Research Workplace (IRW) 3.0 software (Siemens, Germany) was used to measure the regions of interest (ROIs) determined by superimposing the ellipsoid volume of interest (VOI) on the target tissues. The radioactivity concentrations were measured by the mean pixel intensity within each VOI and converted to dose/ml using a calibration constant. Assuming the tissue density of 1 g/ml, the ROI was then converted to dose per gram and normalized as the percent injected dose per gram (% ID/g). Tumor-to-nontarget uptake ratios, including tumor-to-muscle (T/M), tumor-to-liver (T/L), and tumor-to-kidneys (T/K) ratios, were calculated by dividing the radioactivity uptake in tumor by that in the corresponding normal tissue or organ.

[3] = as above; type: in vivo, nude mice; conditions: both sexes, BALB/c nude, mouse, iv, 5.55 MBq, total radioactivity; for tissue to tissue ratio at 1 h / tissue to tissue ratio at 0.5 h / tissue to tissue ratio at 2 h: HepG2 (GPC3+) tumor bearing mice; for tissue to tissue ratio at 1 h / tissue uptake at 1 h: 60 min; for tissue to tissue ratio at 0.5 h / tissue uptake at 0.5 h: 30 min; for tissue to tissue ratio at 2 h / tissue uptake at 2 h: 120 min; for tissue uptake at 0.5 h / tissue uptake at 1 h / tissue uptake at 2 h: HepG2 (GPC3+) tumor model, PET
Procedure: as §1, §2, §3

[4] = In vitro stability in PBS and mouse serum; type: in vitro ADME; conditions: PBS at room temperature and mouse serum at 37° C., 2 h incubation, HPLC
Procedure: In Vitro Stability. The stability of Al[^18F]F-GP2076 or Al[^18F]F-GP2633 was evaluated in PBS and mouse serum. Briefly, 5.55 MBq of Al[^18F]F-GP2076 or Al[^18F]F-GP2633 was incubated with 0.5 ml of PBS at room temperature or mouse serum at 37° C. with gentle shaking. The stability test was carried out at 2 h after the incubation. For the PBS study, an aliquot of the solution was taken, and the radiochemical purity was determined by analytical HPLC. For the mouse serum study, after the addition of TFA, the mixture was passed through a 0.2-μm filter. An aliquot of the soluble fraction was taken, and the radiochemical purity was examined by analytical HPLC.

[5] = Measurement of lipophilicity (Log P), 1-octanol/PBS partition; type: physicochemical; conditions: 1-octanol / PBS pH 7.4, mean ± SD, n = 4
Procedure: Measurement of Lipophilicity (Log P). Approximately 185 kBq of Al[^18F]F-GP2076 or Al[^18F]F-GP2633 in 0.5 ml of phosphate-buffered saline (PBS) (pH 7.4) was mixed with 0.5 ml of 1-octanol. The mixture was vigorously shaken for 1 min, and then centrifuged at 12,000 rpm for 5 min to partition the organic and aqueous layers. Aliquots of 0.2 ml each layer were taken and the radioactivity was determined by gamma counting (GC-1200, USTC Chuangxin Co. Ltd. Zonkia Branch, China). The distribution coefficient P was calculated as the ratio of radioactivity in the organic phase to that in the aqueous phase. The experiment was carried out in quadruplicate.

[6] = HepG2 (GPC3+) tumor bearing mice, 30 min
[7] = HepG2 (GPC3+) tumor bearing mice, 60 min
[8] = HepG2 (GPC3+) tumor bearing mice, 120 min
[9] = HepG2 tumor / liver, read-out: Tumor-to-liver (T/L) uptake ratio
[10] = HepG2 tumor / muscle, read-out: Tumor-to-muscle (T/M) uptake ratio
[11] = intestine, read-out: Intestinal uptake
[12] = decay-corrected, read-out: Tumor uptake
[13] = kidneys, read-out: Kidneys uptake
[14] = muscle, read-out: Muscle uptake
[15] = tumor / kidneys, read-out: Tumor-to-kidneys (T/K) uptake ratio

CC(C)C[C@H](NC(=O)[C@H](CCCNC(=N)N)NC(=S)Nc1ccc(CC2CN(CC(=O)O)CCN(CC(=O)O)CCN2CC(=O)O)cc1)C(=O)N[C@@H](CC(N)=O)C(=O)N[C@H](C(=O)NCC(=O)NCC(=O)N[C@H](C(=O)N[C@@H](Cc1ccc(O)cc1)C(=O)N[C@@H](Cc1ccccc1)C(=O)N[C@@H](CC(C)C)C(=O)N[C@H](C(=O)N[C@H](C(=O)N[C@@H](CCCNC(=N)N)C(=O)N[C@@H](CCC(N)=O)C(=O)O)[C@@H](C)O)[C@@H](C)O)[C@@H](C)O)C(C)C (single isomer, unassigned) [Al[^18F]F-GP2076]
percentage of parent F-18 labeled peptide in HepG2 tumor [1]: 97.69±2.51%
percentage of parent F-18 labeled peptide in blood [1]: 96.68±1.55%
percentage of parent F-18 labeled peptide in kidneys [1]: 54.94±2.12%
percentage of parent F-18 labeled peptide in liver [1]: 96.06±0.54%
percentage of parent F-18 labeled peptide in urine [1]: 3.31±0.20%
Tumor-to-liver (T/L) uptake ratio [2, 6]: 0.43±0.06
Tumor-to-muscle (T/M) uptake ratio [2, 6]: 5.56±1.36
Tumor-to-kidneys (T/K) uptake ratio [2, 7]: 0.31±0.04
Tumor-to-liver (T/L) uptake ratio [2, 7]: 0.59±0.14
Tumor-to-muscle (T/M) uptake ratio [2, 7]: 5.13±2.08
Tumor-to-liver (T/L) uptake ratio [2, 8]: 0.46±0.40
Tumor-to-muscle (T/M) uptake ratio [2, 8]: 2.68±0.29
Kidneys uptake ([2]; 30 min, PET): 9.83±3.69 % ID/g
Liver uptake ([2]; 30 min, PET): 5.10±0.53 % ID/g
Tumor uptake ([2]; 30 min, PET): 2.20±0.36 % ID/g
Kidneys uptake ([2]; 60 min, PET): 7.03±2.32 % ID/g
Liver uptake ([2]; 60 min, PET): 3.70±0.98 % ID/g
Tumor uptake ([2]; 60 min, PET): 2.13±0.55 % ID/g
Kidneys uptake ([2]; 120 min, PET): 2.27 ± 1.07 % ID/g
Liver uptake ([2]; 120 min, PET): 2.07 ± 0.96 % ID/g
Tumor uptake ([2]; 120 min, PET): 0.73±0.32 % ID/g
defluorination in vivo (from low bone uptake) ([2]; PET, bone uptake): did not occur
clearance / excretion route from the mouse body ([2]; as visualized by PET images): primarily through the hepatic pathway
tissue to tissue ratio at 1 h ([3]; HepG2 tumor / kidneys, read-out: Tumor-to-kidneys (T/K) uptake ratio): 0.31 ± 0.04
tissue to tissue ratio at 0.5 h [3, 9]: 0.43 ± 0.06
tissue to tissue ratio at 1 h [3, 9]: 0.59 ± 0.14
tissue to tissue ratio at 2 h [3, 9]: 0.46 ± 0.4
tissue to tissue ratio at 0.5 h [3, 10]: 5.56 ± 1.36
tissue to tissue ratio at 1 h [3, 10]: 5.13 ± 2.08
tissue to tissue ratio at 2 h [3, 10]: 2.68 ± 0.29
tissue uptake at 0.5 h ([3]; bone, read-out: Bone uptake): 0.95 %ID/g
tissue uptake at 1 h ([3]; bone, read-out: Bone uptake): 0.35 %ID/g
tissue uptake at 2 h ([3]; bone, read-out: Bone uptake): 0.21 %ID/g
tissue uptake at 0.5 h ([3]; brain, read-out: Brain uptake): 0.63 %ID/g
tissue uptake at 1 h ([3]; brain, read-out: Brain uptake): 0.18 %ID/g
tissue uptake at 2 h ([3]; brain, read-out: Brain uptake): 0.13 %ID/g
tissue uptake at 0.5 h ([3]; heart, read-out: Heart uptake): 1.29 %ID/g
tissue uptake at 1 h ([3]; heart, read-out: Heart uptake): 1.05 %ID/g
tissue uptake at 2 h ([3]; heart, read-out: Heart uptake): 0.36 %ID/g
tissue uptake at 0.5 h [3, 11]: 3.03 %ID/g
tissue uptake at 1 h [3, 11]: 2.57 %ID/g
tissue uptake at 2 h [3, 11]: 1.8 %ID/g
tissue uptake at 0.5 h [3, 12]: 2.2 %ID/g
tissue uptake at 1 h [3, 12]: 2.13 %ID/g
tissue uptake at 2 h [3, 12]: 0.73 %ID/g
tissue uptake at 0.5 h [3, 13]: 9.83 %ID/g
tissue uptake at 1 h [3, 13]: 7.03 %ID/g
tissue uptake at 2 h [3, 13]: 2.27 %ID/g
tissue uptake at 0.5 h ([3]; liver, read-out: Liver uptake): 5.1 %ID/g
tissue uptake at 1 h ([3]; liver, read-out: Liver uptake): 3.7 %ID/g
tissue uptake at 2 h ([3]; liver, read-out: Liver uptake): 2.07 %ID/g
tissue uptake at 0.5 h ([3]; lung, read-out: Lung uptake): 1.57 %ID/g
tissue uptake at 1 h ([3]; lung, read-out: Lung uptake): 0.78 %ID/g
tissue uptake at 2 h ([3]; lung, read-out: Lung uptake): 0.43 %ID/g
tissue uptake at 0.5 h [3, 14]: 0.41 %ID/g
tissue uptake at 1 h [3, 14]: 0.44 %ID/g
tissue uptake at 2 h [3, 14]: 0.28 %ID/g
tissue to tissue ratio at 0.5 h [3, 15]: 0.25 ± 0.11
tissue to tissue ratio at 2 h [3, 15]: 0.46 ± 0.46
percentage of intact radiotracer (in vitro stability) [4]: > 95%
logP [5]: -2.1 ± 0.07
